Measured values: patent US6635621B1, “Cysteine protease inhibitors” (Naeja Pharmaceutical Inc., priority 1999, dated 2003)

Tests used:
[1] = target: rat cathepsin L (Rattus norvegicus, UniProt P07154); assay: In vitro assay for inhibition of cathepsin L; type: biochemical; settings: r rat cathepsin L, substrate N-CBZ-Phe-Arg-AMC, pH 5.0, 10 min incubation at room temperature
Protocol: In Vitro Assay Procedure for Cathepsin L
To a 170 μl of enzyme-buffer mixture (enzyme: r rat cathepsin L, diluted to give approximate 15 F units/min, buffer: 58.8 mM sodium citrate, 1.18 mM EDTA, 235 mM sodium chloride, 5 mM […], pH 5.0) a 10 μL of inhibitor (dissolved in DMSO) was added. After 10 min of incubation at room temperature, a 20 μl of 1 mM substrate (N-CBZ-Phe-Arg-AMC, dissolved in DMSO) was added to initiate reaction. Reading is followed up for 10 min at the fluoroscan reader (excitation at 380 nm emission at 460 nm).
(§1) A plot of percentage of inhibition vs inhibitor concentration is obtained, and IC50 is determined using a linear regression calculations (concentration of inhibitor which will give 50% inhibition).

[2] = target: cathepsin S (Homo sapiens, UniProt P25774); assay: In vitro assay for inhibition of cathepsin S; type: biochemical; settings: r cathepsin S, substrate N-CBZ-Val-Val-Arg-AMC, pH 6.5, 10 min incubation at room temperature
Protocol: In Vitro Assay Procedure for Cathepsin S
To a 170 μl of enzyme-buffer mixture (enzyme: r cathepsin S, diluted to give approximate 30 F units/min, buffer: 100 mM sodium phosphate, 1 mM EDTA, 5 mM DTT, 0.01% Brij, pH 6.5) a 10 μL of inhibitor (dissolved in DMSO) was added. After 10 min of incubation at room temperature, a 20 μl of 1.2 mM substrate (N-CBZ-Val-Val-Arg-AMC, dissolved in DMSO) was added to initiate reaction. Reading is followed up for 10 min at the fluoroscan II plate reader (excitation at 380 nm emission at 460 nm).
as §1

[3] = target: rat cathepsin B (Rattus norvegicus, UniProt P00787); assay: In vitro assay for inhibition of cathepsin B; type: biochemical; settings: r rat cathepsin B, substrate N-CBZ-Phe-Arg-AMC, pH 5.1, 10 min incubation at room temperature
Protocol: In Vitro Assay Procedure for Cathepsin B
The compounds of formula I were tested for inhibition of cathepsin B using the known method (A. J. Barret et al., Biochem. J. 1982, 201, 189-198). To a 170 μl of enzyme-buffer mixture (enzyme: r rat cathepsin B, diluted to give approximate 10 F units/min, buffer: 56 mM sodium acetate, 1.124 mM EDTA, 10 mM DTT, pH 5.1) a 10 μL of inhibitor (dissolved in DMSO) was added. After 10 min of incubation at room temperature, a 20 μl of 5 mM substrate (N-CBZ-Phe-Arg-AMC, dissolved in DMSO) was added to initiate reaction. Reading is followed up for 10 min at the fluoroscan reader (excitation at 380 nm emission at 460 nm).
as §1

[4] = target: T1, cathepsin K (Homo sapiens, UniProt P43235); assay: In vitro assay for inhibition of cathepsin K; type: biochemical; settings: r cathepsin K, substrate N-CBZ-Phe-Arg-AMC, pH 5.5, 10 min incubation at room temperature
T1 sequence (P43235 115-329): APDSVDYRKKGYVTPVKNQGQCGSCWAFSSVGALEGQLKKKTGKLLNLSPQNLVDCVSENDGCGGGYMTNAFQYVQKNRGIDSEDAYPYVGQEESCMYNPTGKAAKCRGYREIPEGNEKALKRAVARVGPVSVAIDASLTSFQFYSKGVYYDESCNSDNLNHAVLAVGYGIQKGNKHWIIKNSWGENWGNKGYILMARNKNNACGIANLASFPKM
Protocol: In Vitro Assay Procedure for Cathepsin K
To a 170 μl of enzyme-buffer mixture (enzyme: r cathepsin K, diluted to give approximate 30 F units/min, buffer: 100 mM sodium acetate, 5 mM EDTA, 20 mM L-cysteine, 0.01% Brij, pH 5.5) a 10 μL of inhibitor (dissolved in DMSO) was added. After 10 min of incubation at room temperature, a 20 μl of 2.7 mM substrate (N-CBZ-Phe-Arg-AMC, dissolved in DMSO) was added to initiate reaction. Reading is followed up for 10 min at the fluoroscan II plate reader (excitation at 380 nm emission at 460 nm).
as §1

cathepsin S, sequence (P25774 115-331, species assumed): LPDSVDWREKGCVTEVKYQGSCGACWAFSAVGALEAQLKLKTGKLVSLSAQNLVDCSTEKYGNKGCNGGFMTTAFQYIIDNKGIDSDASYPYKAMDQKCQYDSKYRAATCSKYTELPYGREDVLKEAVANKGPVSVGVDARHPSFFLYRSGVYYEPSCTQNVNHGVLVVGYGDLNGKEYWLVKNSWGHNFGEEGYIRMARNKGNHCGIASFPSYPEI
rat cathepsin B, sequence (P00787 80-333): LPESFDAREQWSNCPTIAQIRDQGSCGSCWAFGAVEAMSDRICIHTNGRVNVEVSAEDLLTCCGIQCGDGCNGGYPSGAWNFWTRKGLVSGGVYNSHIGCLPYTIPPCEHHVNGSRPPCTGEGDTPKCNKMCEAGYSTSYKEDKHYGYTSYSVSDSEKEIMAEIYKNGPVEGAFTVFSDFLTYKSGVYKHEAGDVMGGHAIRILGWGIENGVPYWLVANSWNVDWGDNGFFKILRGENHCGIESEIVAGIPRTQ
rat cathepsin L, sequence (P07154 114-334): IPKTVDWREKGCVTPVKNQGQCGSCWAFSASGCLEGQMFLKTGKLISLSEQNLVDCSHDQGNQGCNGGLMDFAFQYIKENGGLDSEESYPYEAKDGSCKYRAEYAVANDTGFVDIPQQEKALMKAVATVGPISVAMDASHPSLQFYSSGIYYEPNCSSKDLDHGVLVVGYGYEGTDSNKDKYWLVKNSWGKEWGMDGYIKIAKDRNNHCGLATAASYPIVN

SMILES | IC50 [1] [µM] | IC50 [2] [µM] | IC50 [3] [µM] | IC50 [4] [µM] | melting point [°C]
CC(C)C[C@H](NC(=O)OCc1ccccc1)C(=O)N/C(=C\N1CCC(NC(=O)OC(C)(C)C)C1)C(N)=O (stereo partly drawn) [Example 18, 2-(2S-2-Benzyloxycarbonylamino-2-isopropylmethyl-acetamido)-3-(3-tert-butoxycarbonylamino-pyrrolidino)-acrylamide] | 0.12 | 0.039 | 1.9 | 0.0096 | 140 to 142
CC(C)C[C@H](NC(=O)OCc1ccccc1)C(=O)N/C(=C/N1CCOCC1)C(=O)c1ccccc1 [Example 27, 2-[2S-(Benzyloxycarbonylamino)-2-isopropylmethyl-acetamido]-2-(morpholino-1-methylenyl)-acetophenone] | 4.24 | 52.2 | 32.3 | 0.14 | –
CC(C)C[C@H](NC(=O)OCc1ccccc1)C(=O)N/C(=C/N1CCOCC1)C(=O)OC(C)(C)C [Example 20, tert-Butyl-2-[2S-(benzyloxycarbonylamino)-2-isopropylmethyl-acetamido]-2-(morpholino-1-methylenyl)-acetate] | 0.08 | 0.38 | 0.42 | 0.004 | –
CCOC(=O)/C(=C\N1CCOCC1)NC(=O)[C@H](Cc1ccccc1)NC(=O)OCc1ccccc1 [Example 22, Ethyl-2-[2S-(benzyloxycarbonylamino)-2-phenylmethyl-acetamido]-2-(morpholino-1-methylenyl)-acetate] | 0.04 | 0.42 | 0.08 | 0.04 | –
CC(C)C[C@H](NC(=O)OCc1ccccc1)C(=O)NC(=CNCc1ccccc1)C(=O)NCc1ccccc1 [Example 16, 2-(2S-2-Benzyloxycarbonylamino-2-isopropylmethyl-acetamido)-3-benzylamino-N-benzyl-acrylamide] | 0.015 | 0.026 | 0.15 | 0.01 | –
O=C(CCc1ccccc1)N[C@@H](Cc1ccccc1)C(=O)N/C(=C/N1CCOCC1)C(=O)OC(c1ccccc1)c1ccccc1 [Example 25, Diphenylmethyl-2-[2S-(3-phenylpropionylamino)-2-phenylmethyl-acetamido]-2-(morpholino-1-methylenyl)-acetate] | 0.18 | 0.18 | 0.06 | 0.065 | –
CC(C)C[C@H](NC(=O)OCc1ccccc1)C(=O)N/C(=C/N1CCOCC1)C(=O)c1ccc(F)cc1 [Example 29, 2-[2S-(Benzyloxycarbonylamino)-2-isopropylmethyl-acetamido]-2-(morpholino-1-methylenyl)-4′-fluoroacetophenone] | 2.01 | 50.3 | 50.3 | 0.34 | –
CC(=O)N/C=C(\NC(=O)[C@H](CC(C)C)NC(=O)OCc1ccccc1)C(N)=O [Example 10b, (2Z)-(2S-2-Benzyloxycarbonylamino-2-isopropylmethyl-acetamido)-3-acetamido-acrylamide] | > 64 | > 3.2 | 50.5 | 10.7 | –
CCOC(=O)/C(=C\N1CCOCC1)NC(=O)[C@H](CC(C)C)NC(=O)OCc1ccccc1 [Example 23, Ethyl-2-[2S-(benzyloxycarbonylamino)-2-isopropylmethyl-acetamido]-2-(morpholino-1-methylenyl)-acetate] | 0.089 | 0.038 | 0.45 | 0.011 | –
NC(=O)C(NC(=O)[C@H](Cc1ccccc1)NC(=O)OCc1ccccc1)C(O)O (stereo partly drawn) [Example 13, 2-(2S-2-Benzyloxycarbonylamino-2-benzyl-acetamido)-3,3-dihydroxy-propionamide] | 0.004 | 0.004 | 1.4 | 0.4 | –
COc1ccc(C(=O)/C(=C\N2CCOCC2)NC(=O)[C@H](CC(C)C)NC(=O)c2cc3ccccc3s2)cc1 [Example 26, 2-[2S-(Benzothiophen-2-carbonylamino)-2-isopropylmethyl-acetamido]-2-(morpholino-1-methylenyl)-4′-methoxyacetophenone] | 0.075 | 0.99 | 1.47 | 0.015 | –
COc1ccc(C(=O)/C(=C\N2CCOCC2)NC(=O)[C@H](CC(C)C)NC(=O)OCc2ccccc2)cc1 [Example 28, 2-[2S-(Benzyloxycarbonylamino)-2-isopropylmethyl-acetamido]-2-(morpholino-1-methylenyl)-4′-methoxyacetophenone] | 0.27 | 1.3 | 1.96 | 0.016 | –
CCOC(=O)/C(=C\N1CCN(C)CC1)NC(=O)[C@H](CC(C)C)NC(=O)OCc1ccccc1 [Example 21, Ethyl-2-[2S-(benzyloxycarbonylamino)-2-isopropylmethyl-acetamido]-2-(4-methylpiperazino-1-methylenyl)-acetate] | 0.21 | 0.3 | 8.21 | 0.087 | –
CCOC(=O)/C(=C\N1CCOCC1)NC(=O)[C@H](CC1CCCCC1)NC(=O)OCc1ccccc1 [Example 24, Ethyl-2-[2S-(benzyloxycarbonylamino)-2-cyclohexylmethyl-acetamido]-2-(morpholino-1-methylenyl)-acetate] | 0.082 | 0.0033 | 0.082 | 0.37 | –

Second part, led by results:

IC50 [1] [µM] | IC50 [2] [µM] | IC50 [3] [µM] | IC50 [4] [µM] | SMILES | melting point [°C]
0.017 | 0.43 | 0.43 | 0.09 | COC(=O)CN/C=C(\NC(=O)[C@H](Cc1ccccc1)NC(=O)OCc1ccccc1)C(N)=O [Example 31b, (2Z)-(2S-2-Benzyloxycarbonylamino-2-phenylmethyl-acetamido)-3-(1-carbomethoxy-methylamino)-acrylamide] | –
≥ 58 | 5.23 | > 58 | > 58 | CC(=O)N/C=C(\NC(=O)[C@H](CC1CCCCC1)NC(=O)OCc1ccccc1)C(N)=O [Example 19b, (2Z)-(2S-2-Benzyloxycarbonylamino-2-cyclohexylmethyl-acetamido)-3-acetamido-acrylamide] | –
0.017 | 0.7 | 0.66 | 0.13 | COC(=O)CN/C=C(/NC(=O)[C@H](Cc1ccccc1)NC(=O)OCc1ccccc1)C(N)=O [Example 31a, (2E)-(2S-2-Benzyloxycarbonylamino-2-phenylmethyl-acetamido)-3-(1-carbomethoxy-methylamino)-acrylamide] | –
0.048 | 0.57 | 1.83 | 0.28 | COC(=O)[C@H](Cc1ccccc1)N/C=C(/NC(=O)[C@H](Cc1ccccc1)NC(=O)OCc1ccccc1)C(N)=O [Example 30a, (2E)-(2S-2-Benzyloxycarbonylamino-2-phenylmethyl-acetamido)-3-(1-carbomethoxy-2-phenethylamino)-acrylamide] | –
0.035 | 1.21 | 1.83 | 0.28 | COC(=O)[C@H](Cc1ccccc1)N/C=C(\NC(=O)[C@H](Cc1ccccc1)NC(=O)OCc1ccccc1)C(N)=O [Example 30b, (2Z)-(2S-2-Benzyloxycarbonylamino-2-phenylmethyl-acetamido)-3-(1-carbomethoxy-2-phenethylamino)-acrylamide] | –
